This is an account of results in ChEMBL document CHEMBL1123556, “Synthesis of antimicrobial agents. 1. Syntheses and antibacterial activities of 7-(azole substituted)quinolones” (J Med Chem, 1987).

The structures appear in SMILES notation. In brackets after ≈: the same amount, converted by molar mass.

Series [1] can be described thus: In vivo acute toxicity against Escherichia coli (KC-14) was determined for the compound administered intravenously. It counts as organism-based. As to conditions: mouse, iv.
Series [2] in a line: In vivo acute toxicity against Escherichia coli (KC-14) was determined for the compound administered perorally. In kind it is organism-based. The settings on record: mouse, po.
Series [3] relates to Staphylococcus epidermidis. The series can be described thus: In vitro antibacterial activity against Staphylococcus epidermidis IAM 1576. In kind it is functional.
In series [4] the test system is Bacillus subtilis. The series can be described thus: In vitro antibacterial activity against Bacillus subtilis ATCC 6633. In kind it is functional.
Series [5] concerns Proteus vulgaris. The series can be described thus: In vitro antibacterial activity against Proteus vulgaris HX-19. In kind it is functional.
The test system of series [6] is Klebsiella pneumoniae. The series can be described thus: In vitro antibacterial activity against Klebsiella pneumoniae PCI-602. It counts as functional.
The subject of series [7] is Staphylococcus aureus. The series can be described thus: In vitro antibacterial activity against Staphylococcus aureus FDA 209P JC-1. It counts as functional.
The subject of series [8] is Salmonella paratyphi. Briefly: In vitro antibacterial activity against Salmonella paratyphi 1015. It counts as functional, Salmonella enterica subsp. enterica serovar Paratyphi A. As to conditions: Salmonella enterica.
In series [9] the test system is Escherichia coli. Briefly: In vitro antibacterial activity against Escherichia coli NIHJ JC-2. It counts as functional.
The subject of series [10] is Pseudomonas aeruginosa. The series can be described thus: In vitro antibacterial activity against Pseudomonas aeruginosa IFO 3445. It counts as functional.
Series [11] has as its system Salmonella paratyphi. Briefly: microbe, parasite or virus in culture. It counts as functional, Salmonella enterica subsp. enterica serovar Paratyphi A. The settings on record: Salmonella enterica.
The subject of series [12] is Klebsiella pneumoniae. Briefly: microbe, parasite or virus in culture. It counts as functional.
Series [13] relates to Staphylococcus epidermidis. Briefly: microbe, parasite or virus in culture. In kind it is functional.
Series [14] has as its system Mus musculus. Briefly: In vivo antibacterial activity against Escherichia coli (KC-14) was determined for the compound administered perorally; Value ranges from 2.4-4.7. In kind it is functional. As to conditions: po.
Series [15] in a line: Total serum concentrations at 0 to 4 hours interval was determined by 50 mg / kg oral administration. It counts as ADME, cell-free.
Series [16] can be described thus: Concentrations in serum after 30 minutes at 50 mg / kg oral administration. It counts as ADME, cell-free.
Series [17] can be described thus: Concentrations in serum after 60 minutes at 50 mg / kg oral administration. In kind it is ADME, cell-free.
The nature of series [18]: Concentrations in serum after 120 minutes at 50 mg / kg oral administration. It counts as ADME, cell-free.
Series [19] in a line: In vivo acute toxicity against Escherichia coli (KC-14) was determined for the compound administered orally. In kind it is organism-based. As to conditions: mouse, po.
Series [20] in a line: Concentrations in serum after 240 minutes at 50 mg / kg oral administration. In kind it is ADME.

Usually LD50 stands for the dose expected to kill half of the subjects tested. Read a high LD50 as lower toxicity. Consider `CCn1cc(C(=O)O)c(=O)c2cc(F)c(N3CCNCC3)c(F)c21`, for which the LD50 in series [1] turned out to be 193 mg/kg; in [2] it was 1070 mg/kg.
Take `CCn1cc(C(=O)O)c(=O)c2cc(F)c(-n3cnc(Br)c3)c(F)c21`: the MIC stood at 6.25 µg/mL (≈ 15.7 µM) in series [3]; 0.2 µg/mL (≈ 0.502 µM) in [4]; 0.2 µg/mL (≈ 0.502 µM) in series [5]; 0.2 µg/mL (≈ 0.502 µM) in [6]; 0.78 µg/mL (≈ 1.96 µM) in [7]; 0.2 µg/mL (≈ 0.502 µM) in series [8]. Also, the MIC in [9] came to 1.56 µg/mL (≈ 3.92 µM); in series [10] it was 25 µg/mL (≈ 62.8 µM).
Turning to `CCn1cc(C(=O)O)c(=O)c2cc(F)c(-n3cccn3)cc21`, the MIC in series [11] turned out to be 0.39 µg/mL (≈ 1.29 µM); in series [4] it was 0.78 µg/mL (≈ 2.59 µM); in [12] it was 0.78 µg/mL (≈ 2.59 µM); in series [5], 0.39 µg/mL (≈ 1.29 µM); in series [13], 25 µg/mL (≈ 83 µM); in series [7], 6.25 µg/mL (≈ 20.7 µM). For the same compound, the MIC in series [9] is 12.5 µg/mL (≈ 41.5 µM); in series [10], 25 µg/mL (≈ 83 µM).
For `CCn1cc(C(=O)O)c(=O)c2cc(F)c(-n3cnc(C=O)c3)c(F)c21`, the MIC in [3] stood at 25 µg/mL (≈ 72 µM); in series [4] it was 0.78 µg/mL (≈ 2.25 µM); in series [5] it was 0.2 µg/mL (≈ 0.576 µM); in series [6] it was 0.2 µg/mL (≈ 0.576 µM); in series [7], 3.13 µg/mL (≈ 9.01 µM); in [8], 0.2 µg/mL (≈ 0.576 µM). The values for the MIC in series [9] and in [10] were 0.78 µg/mL (≈ 2.25 µM) and 25 µg/mL (≈ 72 µM), respectively.
Regarding `CCn1cc(C(=O)O)c(=O)c2cc(F)c(-n3cnc(/C=N/O)c3)c(F)c21`, the MIC is 0.39 µg/mL (≈ 1.08 µM) in series [11]; 0.78 µg/mL (≈ 2.15 µM) in series [4]; 0.39 µg/mL (≈ 1.08 µM) in series [12]; 0.78 µg/mL (≈ 2.15 µM) in series [5]; 25 µg/mL (≈ 69 µM) in [13]; 3.13 µg/mL (≈ 8.64 µM) in [7]. Besides, the MIC in series [9] turned out to be 6.25 µg/mL (≈ 17.3 µM); in series [10] it was 25 µg/mL (≈ 69 µM).
On to `CCn1cc(C(=O)O)c(=O)c2cc(F)c(-n3ccnc3C)c(F)c21`, for which the MIC in [11] came out at 0.39 µg/mL (≈ 1.17 µM); in [4] it was 0.78 µg/mL (≈ 2.34 µM); in series [12], 0.39 µg/mL (≈ 1.17 µM); in series [5], 0.2 µg/mL (≈ 0.6 µM); in [13], 25 µg/mL (≈ 75 µM); in [7], 6.25 µg/mL (≈ 18.8 µM). Besides, the MIC in series [9] was 3.13 µg/mL (≈ 9.39 µM); in [10], 25 µg/mL (≈ 75 µM).
Regarding `CCn1cc(C(=O)O)c(=O)c2cc(F)c(-n3cnc([N+](=O)[O-])c3)c(F)c21`, the MIC was 1.56 µg/mL (≈ 4.28 µM) in series [11]; 0.39 µg/mL (≈ 1.07 µM) in [4]; 0.39 µg/mL (≈ 1.07 µM) in [12]; 3.13 µg/mL (≈ 8.59 µM) in series [5]; 6.25 µg/mL (≈ 17.2 µM) in [13]; 1.56 µg/mL (≈ 4.28 µM) in [7]. For the same compound, the results for the MIC in series [9] and in series [10] were 6.25 µg/mL (≈ 17.2 µM) and 25 µg/mL (≈ 68.6 µM), respectively.
The term ED50 denotes the midpoint of the dose-response relation. On to `CCn1cc(C(=O)O)c(=O)c2cc(F)c(-n3cnc(C)c3)c(F)c21`, for which the ED50 in series [14] came out at 3.3 mg/kg. Moreover, in series [15], the Concentration in serum came to 67900 ng/mL. Moreover, the results for the LD50 in series [1] and in series [19] were 593 mg/kg and 4000 mg/kg, respectively. Also, in series [16], the concentration at 0.5 h was 49200 ng/mL. Also, the concentration at 1 h in series [17] was 29400 ng/mL. This compound also came in with a concentration at 2 h in series [18] of 10000 ng/mL. Moreover, the concentration at 4 h in series [20] came to 6300 ng/mL.
For the compound `CCn1cc(C(=O)O)c(=O)c2cc(F)c(-n3cnc(CN(C)C)c3)c(F)c21`, the MIC in [11] is 6.25 µg/mL (≈ 16.6 µM); in series [4], 6.25 µg/mL (≈ 16.6 µM); in series [12], 3.13 µg/mL (≈ 8.32 µM); in [5], 6.25 µg/mL (≈ 16.6 µM); in series [13] it was 25 µg/mL (≈ 66.4 µM); in [7], 6.25 µg/mL (≈ 16.6 µM). Further, the MIC in series [9] and in series [10] was 25 µg/mL (≈ 66.4 µM) each time.
Consider `CCn1cc(C(=O)O)c(=O)c2cc(F)c(-n3cnc(C(=O)OC)c3)c(F)c21`, for which the MIC in series [11] turned out to be 3.13 µg/mL (≈ 8.3 µM); in [4], 12.5 µg/mL (≈ 33.1 µM); in series [12], 3.13 µg/mL (≈ 8.3 µM); in series [5] it was 1.56 µg/mL (≈ 4.13 µM); in series [13], 25 µg/mL (≈ 66.3 µM); in [7], 25 µg/mL (≈ 66.3 µM). Also, the MIC in series [9] and in [10] was 25 µg/mL (≈ 66.3 µM) each time.
Regarding `CCn1cc(C(=O)O)c(=O)c2cc(F)c(-n3ccnc3)c(SC)c21`, the MIC in series [11] was found to be 0.39 µg/mL (≈ 1.12 µM); in series [4] it was 0.39 µg/mL (≈ 1.12 µM); in series [12], 0.39 µg/mL (≈ 1.12 µM); in [5], 0.39 µg/mL (≈ 1.12 µM); in series [13], 12.5 µg/mL (≈ 36 µM); in series [7], 3.13 µg/mL (≈ 9.01 µM). Besides, the results for the MIC in series [9] and in series [10] were 6.25 µg/mL (≈ 18 µM) and 25 µg/mL (≈ 72 µM), respectively.
